From US20230278972A1, “SUBSTITUTED HALOALKYL SULFONANILIDE HERBICIDES” (FMC Corporation, priority 2020, published 2023)

How the values were obtained:
Assay type in all cases: in vivo
[1] = system: Ryegrass, Italian (Italian ryegrass, Lolium multiflorum); assay: Test A postemergence, Ryegrass, Italian; conditions: Postemergence, 0 to 100 scale (0 no effect, 100 complete control); for Plant response rating, Ryegrass, Italian: 125 g ai/ha; for Ryegrass, Italian plant response rating: 500 g ai/ha, visual injury vs untreated controls after approx. 10 days
Summary of the method: (§1)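 Directed soil spray at planting gave the preemergence treatment, while foliar application to one- to two-leaf seedlings (2–10 cm) gave the postemergence one; pots held a loam and sand mixture and chemicals were carried in a non-phytotoxic solvent with surfactant.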

[2] = system: Foxtail, Giant (giant foxtail, Setaria faberi); assay: Test A postemergence, Foxtail, Giant; conditions: Postemergence, 0 to 100 scale (0 no effect, 100 complete control); for Plant response rating, Foxtail, Giant: 125 g ai/ha; for Foxtail, Giant plant response rating: 500 g ai/ha, visual injury vs untreated controls after approx. 10 days
Summary of the method: as §1

[3] = system: galium (catchweed bedstraw, Galium aparine); assay: Test A postemergence, galium; conditions: Postemergence, 0 to 100 scale (0 no effect, 100 complete control); for Plant response rating, Galium: 125 g ai/ha; for Galium plant response rating: 500 g ai/ha, visual injury vs untreated controls after approx. 10 days
Summary of the method: (§2)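 Preemergence: seeded pots of loam plus sand received a directed soil spray. Postemergence: seedlings at one to two leaves, 2 to 10 cm high, were oversprayed. Each compound was formulated in a non-phytotoxic solvent mix that included a surfactant.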

[4] = system: Ryegrass, Italian (Italian ryegrass, Lolium multiflorum); assay: Test A preemergence, Ryegrass, Italian; conditions: Preemergence; for Ryegrass, Italian plant response rating: visual injury on 0 to 100 scale (0 no effect, 100 complete control), approximately 10 days; for Plant response rating, Ryegrass, Italian: 0 to 100 scale (0 no effect, 100 complete control)
Summary of the method: as §1

[5] = system: barnyardgrass (Echinochloa crus-galli); assay: Test A postemergence, barnyardgrass; conditions: Postemergence, 0 to 100 scale (0 no effect, 100 complete control); for Plant response rating, Barnyardgrass: 125 g ai/ha; for Barnyardgrass plant response rating: 500 g ai/ha, visual injury vs untreated controls after approx. 10 days
Summary of the method: as §2

corn (Zea mays) = assay: Test A postemergence, corn; conditions: Postemergence, 0 to 100 scale (0 no effect, 100 complete control); for Plant response rating, Corn: 125 g ai/ha; for Corn plant response rating: 500 g ai/ha, visual injury vs untreated controls after approx. 10 days
Summary of the method: as §1

[6] = system: wheat (Triticum aestivum); assay: Test A postemergence, wheat; conditions: Postemergence, 0 to 100 scale (0 no effect, 100 complete control); for Plant response rating, Wheat: 125 g ai/ha; for Wheat plant response rating: 500 g ai/ha, visual injury vs untreated controls after approx. 10 days
Summary of the method: as §2

[7] = system: barnyardgrass (Echinochloa crus-galli); assay: Test A preemergence, barnyardgrass; conditions: Preemergence; for Barnyardgrass plant response rating: visual injury on 0 to 100 scale (0 no effect, 100 complete control), approximately 10 days; for Plant response rating, Barnyardgrass: 0 to 100 scale (0 no effect, 100 complete control)
Summary of the method: as §1

[8] = system: ragweed (common ragweed, Ambrosia artemisiifolia); assay: Test A postemergence, ragweed; conditions: Postemergence, 0 to 100 scale (0 no effect, 100 complete control); for Plant response rating, Ragweed: 125 g ai/ha; for Ragweed plant response rating: 500 g ai/ha, visual injury vs untreated controls after approx. 10 days
Summary of the method: as §1

[9] = system: ragweed (common ragweed, Ambrosia artemisiifolia); assay: Test A preemergence, ragweed; conditions: Preemergence; for Ragweed plant response rating: visual injury on 0 to 100 scale (0 no effect, 100 complete control), approximately 10 days; for Plant response rating, Ragweed: 0 to 100 scale (0 no effect, 100 complete control)
Summary of the method: as §1

[10] = system: pigweed (Amaranthus retroflexus); assay: Test A preemergence, pigweed; conditions: for Pigweed plant response rating: visual injury on 0 to 100 scale (0 no effect, 100 complete control), approximately 10 days; for Plant response rating, Pigweed: 0 to 100 scale (0 no effect, 100 complete control)
Summary of the method: as §2

[11] = system: blackgrass (Alopecurus myosuroides); assay: Test A postemergence, blackgrass; conditions: Postemergence, 0 to 100 scale (0 no effect, 100 complete control); for Plant response rating, Blackgrass: 125 g ai/ha; for Blackgrass plant response rating: 500 g ai/ha, visual injury vs untreated controls after approx. 10 days
Summary of the method: as §1

kochia (Bassia scoparia) [12] = assay: Test A postemergence, kochia; conditions: Postemergence, 0 to 100 scale (0 no effect, 100 complete control); for Plant response rating, Kochia: 125 g ai/ha; for Kochia plant response rating: 500 g ai/ha, visual injury vs untreated controls after approx. 10 days
Summary of the method: as §1

kochia (Bassia scoparia) [13] = assay: Test A preemergence, kochia; conditions: Preemergence; for Kochia plant response rating: visual injury on 0 to 100 scale (0 no effect, 100 complete control), approximately 10 days; for Plant response rating, Kochia: 0 to 100 scale (0 no effect, 100 complete control)
Summary of the method: as §1

[14] = system: Foxtail, Giant (giant foxtail, Setaria faberi); assay: Test A preemergence, Foxtail, Giant; conditions: Preemergence; for Foxtail, Giant plant response rating: visual injury on 0 to 100 scale (0 no effect, 100 complete control), approximately 10 days; for Plant response rating, Foxtail, Giant: 0 to 100 scale (0 no effect, 100 complete control)
Summary of the method: as §1

[15] = system: pigweed (Amaranthus retroflexus); assay: Test A postemergence, pigweed; conditions: Postemergence, 0 to 100 scale (0 no effect, 100 complete control); for Plant response rating, Pigweed: 125 g ai/ha; for Pigweed plant response rating: 500 g ai/ha, visual injury vs untreated controls after approx. 10 days
Summary of the method: as §1

[16] = 125 g ai/ha, visual injury, approx. 10 days

CCn1nc(C)cc(-c2cc(N(S(=O)(=O)C(F)(F)F)S(=O)(=O)C(F)(F)F)c(C)cc2C)c1=O [Compound 52]
Plant response rating, Ryegrass, Italian ([1]; visual injury approx. 10 days): 20 | Ryegrass, Italian plant response rating [1]: 40 | Plant response rating, Foxtail, Giant ([2]; visual injury approx. 10 days): 0 | Foxtail, Giant plant response rating [2]: 80 | Plant response rating, Galium ([3]; visual injury approx. 10 days): 60 | Galium plant response rating [3]: 80 | Ryegrass, Italian plant response rating ([4]; 125 g ai/ha): 90 | Plant response rating, Ryegrass, Italian ([4]; 500 g ai/ha): 90 | Plant response rating, Barnyardgrass ([5]; visual injury approx. 10 days): 0 | Barnyardgrass plant response rating [5]: 80 | Plant response rating, Corn (corn (Zea mays); visual injury approx. 10 days): 0 | Corn plant response rating (corn (Zea mays)): 0 | Plant response rating, Wheat ([6]; visual injury approx. 10 days): 60 | Wheat plant response rating [6]: 70 | Barnyardgrass plant response rating ([7]; 125 g ai/ha): 100 | Plant response rating, Barnyardgrass ([7]; 500 g ai/ha): 100 | Plant response rating, Ragweed ([8]; visual injury approx. 10 days): 30 | Ragweed plant response rating [8]: 60 | Ragweed plant response rating ([9]; 125 g ai/ha): 10 | Plant response rating, Ragweed ([9]; 500 g ai/ha): 60 | Pigweed plant response rating ([10]; 125 g ai/ha): 50 | Plant response rating, Pigweed ([10]; 500 g ai/ha): 90 | Plant response rating, Blackgrass ([11]; visual injury approx. 10 days): 0 | Blackgrass plant response rating [11]: 80 | Plant response rating, Kochia (kochia (Bassia scoparia) [12]; visual injury approx. 10 days): 30 | Kochia plant response rating (kochia (Bassia scoparia) [12]): 80 | Kochia plant response rating (kochia (Bassia scoparia) [13]; 125 g ai/ha): 70 | Plant response rating, Kochia (kochia (Bassia scoparia) [13]; 500 g ai/ha): 90 | Foxtail, Giant plant response rating ([14]; 125 g ai/ha): 100 | Plant response rating, Foxtail, Giant ([14]; 500 g ai/ha): 100 | Plant response rating, Pigweed ([15]; visual injury approx. 10 days): 30 | Pigweed plant response rating [15]: 50

Cc1cc(F)c(C(=O)N2CC(C)OC(C)C2)cc1N(S(=O)(=O)C(F)(F)F)S(=O)(=O)C(F)(F)F (centres unmarked) [Compound 235]
Plant response rating, Ryegrass, Italian [1]: 30 | Ryegrass, Italian plant response rating [1]: 60 | Plant response rating, Foxtail, Giant [2]: 20 | Foxtail, Giant plant response rating [2]: 30 | Plant response rating, Galium [3]: 70 | Galium plant response rating [3]: 70 | Plant response rating, Ryegrass, Italian [4, 16]: 50 | Ryegrass, Italian plant response rating ([4]; 500 g ai/ha): 90 | Plant response rating, Barnyardgrass [5]: 0 | Barnyardgrass plant response rating [5]: 60 | Plant response rating, Corn (corn (Zea mays)): 0 | Corn plant response rating (corn (Zea mays)): 30 | Plant response rating, Wheat [6]: 20 | Wheat plant response rating [6]: 60 | Plant response rating, Barnyardgrass [7, 16]: 0 | Plant response rating, Barnyardgrass ([7]; 500 g ai/ha): 0 | Plant response rating, Ragweed [8]: 60 | Ragweed plant response rating [8]: 90 | Plant response rating, Ragweed [9, 16]: 40 | Ragweed plant response rating ([9]; 500 g ai/ha): 80 | Plant response rating, Pigweed [10, 16]: 30 | Pigweed plant response rating ([10]; 500 g ai/ha): 80 | Plant response rating, Blackgrass [11]: 0 | Blackgrass plant response rating [11]: 20 | Plant response rating, Kochia (kochia (Bassia scoparia) [12]): 10 | Kochia plant response rating (kochia (Bassia scoparia) [12]): 30 | Plant response rating, Kochia (kochia (Bassia scoparia) [13]; [16]): 30 | Kochia plant response rating (kochia (Bassia scoparia) [13]; 500 g ai/ha): 50 | Plant response rating, Foxtail, Giant [14, 16]: 10 | Foxtail, Giant plant response rating ([14]; 500 g ai/ha): 10 | Plant response rating, Pigweed [15]: 30 | Pigweed plant response rating [15]: 30

COc1cc(-c2cc(NS(=O)(=O)C(F)(F)F)c(C)cc2C)c(=O)n(C)n1 [Compound 70]
Plant response rating, Ryegrass, Italian ([1]; visual injury approx. 10 days): 0 | Ryegrass, Italian plant response rating [1]: 0 | Plant response rating, Foxtail, Giant ([2]; visual injury approx. 10 days): 0 | Foxtail, Giant plant response rating [2]: 20 | Plant response rating, Galium ([3]; visual injury approx. 10 days): 60 | Galium plant response rating [3]: 80 | Ryegrass, Italian plant response rating ([4]; 125 g ai/ha): 50 | Plant response rating, Ryegrass, Italian ([4]; 500 g ai/ha): 60 | Plant response rating, Barnyardgrass ([5]; visual injury approx. 10 days): 0 | Barnyardgrass plant response rating [5]: 50 | Plant response rating, Corn (corn (Zea mays); visual injury approx. 10 days): 0 | Corn plant response rating (corn (Zea mays)): 0 | Plant response rating, Wheat ([6]; visual injury approx. 10 days): 0 | Wheat plant response rating [6]: 30 | Barnyardgrass plant response rating ([7]; 125 g ai/ha): 90 | Plant response rating, Barnyardgrass ([7]; 500 g ai/ha): 100 | Plant response rating, Ragweed ([8]; visual injury approx. 10 days): 0 | Ragweed plant response rating [8]: 0 | Ragweed plant response rating ([9]; 125 g ai/ha): 10 | Plant response rating, Ragweed ([9]; 500 g ai/ha): 70 | Pigweed plant response rating ([10]; 125 g ai/ha): 80 | Plant response rating, Pigweed ([10]; 500 g ai/ha): 80 | Plant response rating, Blackgrass ([11]; visual injury approx. 10 days): 30 | Blackgrass plant response rating [11]: 30 | Plant response rating, Kochia (kochia (Bassia scoparia) [12]; visual injury approx. 10 days): 0 | Kochia plant response rating (kochia (Bassia scoparia) [12]): 0 | Kochia plant response rating (kochia (Bassia scoparia) [13]; 125 g ai/ha): 0 | Plant response rating, Kochia (kochia (Bassia scoparia) [13]; 500 g ai/ha): 0 | Foxtail, Giant plant response rating ([14]; 125 g ai/ha): 10 | Plant response rating, Foxtail, Giant ([14]; 500 g ai/ha): 90 | Plant response rating, Pigweed ([15]; visual injury approx. 10 days): 0 | Pigweed plant response rating [15]: 20

Cc1cc(C)c(C(=O)N2CCC3(CCCCC3)CC2)cc1NS(=O)(=O)C(F)(F)F [Compound 195]
Plant response rating, Ryegrass, Italian [1]: 0 | Ryegrass, Italian plant response rating [1]: 0 | Plant response rating, Foxtail, Giant [2]: 0 | Foxtail, Giant plant response rating [2]: 0 | Plant response rating, Galium [3]: 10 | Galium plant response rating [3]: 20 | Plant response rating, Ryegrass, Italian [4, 16]: 20 | Plant response rating, Ryegrass, Italian ([4]; 500 g ai/ha): 90 | Plant response rating, Barnyardgrass [5]: 0 | Barnyardgrass plant response rating [5]: 0 | Plant response rating, Corn (corn (Zea mays)): 20 | Corn plant response rating (corn (Zea mays)): 0 | Plant response rating, Wheat [6]: 0 | Wheat plant response rating [6]: 0 | Plant response rating, Barnyardgrass [7, 16]: 60 | Plant response rating, Barnyardgrass ([7]; 500 g ai/ha): 90 | Plant response rating, Ragweed [8]: 0 | Ragweed plant response rating [8]: 50 | Plant response rating, Ragweed [9, 16]: 0 | Plant response rating, Ragweed ([9]; 500 g ai/ha): 0 | Plant response rating, Pigweed [10, 16]: 60 | Plant response rating, Pigweed ([10]; 500 g ai/ha): 80 | Plant response rating, Blackgrass [11]: 0 | Blackgrass plant response rating [11]: 0 | Plant response rating, Kochia (kochia (Bassia scoparia) [12]): 0 | Kochia plant response rating (kochia (Bassia scoparia) [12]): 0 | Plant response rating, Kochia (kochia (Bassia scoparia) [13]; [16]): 0 | Plant response rating, Kochia (kochia (Bassia scoparia) [13]; 500 g ai/ha): 0 | Plant response rating, Foxtail, Giant [14, 16]: 70 | Plant response rating, Foxtail, Giant ([14]; 500 g ai/ha): 90 | Plant response rating, Pigweed [15]: 0 | Pigweed plant response rating [15]: 0
